# In patent publication US11053230B2, “3-hydroxy-imidazolidin-4-one compounds as inhibitors of indoleamine 2,3-dioxygenase” (Netherlands Translational Research Center B.V., priority 2017, dated 2021):
# Several values for one entry are separate records, joined by “and”; a condition that tells them apart may be missing. Equal values may be shown once.
# Biological target: T1, IDO1 (Homo sapiens, UniProt P14902)
# T1 construct: Recombinant full-length IDO1 (Seegers, N., et al.) and all other assay components were diluted in IDO1 reaction buffer; made in house
# Assay: Biochemical IDO1 assay (NFK GreenScreen)
# Details: NFK GreenScreen; 25 nM IDO1, 100 μM L-tryptophan; read-out: IC50, inhibitory potency on IDO1
# Summary of the method: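 Recombinant full-length IDO1 in 50 mM NaH2PO4 pH 7.0 with 0.05% Tween-20 and 1% glycerol converted 100 μM L-tryptophan (final) over 60 min at room temperature with compound, 0.3% DMSO.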
# T1 sequence (P14902 whole entry): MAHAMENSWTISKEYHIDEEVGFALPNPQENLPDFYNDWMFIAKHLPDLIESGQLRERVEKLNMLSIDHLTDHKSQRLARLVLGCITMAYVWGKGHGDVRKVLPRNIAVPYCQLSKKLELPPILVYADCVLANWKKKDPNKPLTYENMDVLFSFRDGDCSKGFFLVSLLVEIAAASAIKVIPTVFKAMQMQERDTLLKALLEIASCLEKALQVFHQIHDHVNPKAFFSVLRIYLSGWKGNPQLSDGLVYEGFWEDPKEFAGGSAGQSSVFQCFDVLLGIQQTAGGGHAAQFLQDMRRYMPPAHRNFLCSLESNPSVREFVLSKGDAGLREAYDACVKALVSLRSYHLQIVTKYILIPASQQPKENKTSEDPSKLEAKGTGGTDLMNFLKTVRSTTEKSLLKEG
row,IC50,SMILES
1,≤ 1000 nM,"O=C1CN(Cc2c(F)cccc2F)C(c2cc(Br)cs2)N1O (centres unmarked) [Example 44, 2-(4-Bromo-2-thienyl)-1-[(2,6-difluorophenyl)methyl]-3-hydroxy-imidazolidin-4-one]"
2,≤ 1000 nM,"Cc1sc(C2N(O)C(=O)CN2C(=O)c2c(F)cccc2F)cc1Br (centres unmarked) [Example 113, 2-(4-bromo-5-methyl-2-thienyl)-1-(2,6-difluorobenzoyl)-3-hydroxy-imidazolidin-4-one]"
3,≤ 5000 nM and 1000 to 5000 nM,"O=C1CN(C(=O)c2ccc(C(F)(F)F)cc2F)C(c2cc(Br)cs2)N1O (centres unmarked) [Example 64, 2-(4-Bromo-2-thienyl)-1-[2-fluoro-4-(trifluoromethyl)benzoyl]-3-hydroxy-imidazolidin-4-one]"
4,≤ 1000 nM,"O=C1CN(C(=O)c2c(F)cccc2F)C(c2cc(I)cs2)N1O (centres unmarked) [Example 36, 1-(2,6-Difluorobenzoyl)-3-hydroxy-2-(4-iodo-2-thienyl)imidazolidin-4-one]"
5,≤ 1000 nM,"CC(C)(N)C#Cc1cc(F)c(C(=O)N2CC(=O)N(O)C2c2cc(Br)cs2)c(F)c1 (centres unmarked) [Example 81, 1-[4-(3-Amino-3-methyl-but-1-ynyl)-2,6-difluoro-benzoyl]-2-(4-bromo-2-thienyl)-3-hydroxy-imidazolidin-4-one]"
6,≤ 1000 nM,"O=C1CN(C(=O)c2c(F)cc(Br)cc2F)C(c2cc(Br)cs2)N1O (centres unmarked) [Example 52, 1-(4-Bromo-2,6-difluoro-benzoyl)-2-(4-bromo-2-thienyl)-3-hydroxy-imidazolidin-4-one]"
7,≤ 1000 nM,"NS(=O)(=O)NCC#Cc1cc(F)c(C(=O)N2CC(=O)N(O)C2c2cc(Br)cs2)c(F)c1 (centres unmarked) [Example 80, 2-(4-Bromo-2-thienyl)-1-[2,6-difluoro-4-[3-(sulfamoylamino)prop-1-ynyl]benzoyl]-3-hydroxy-4-oxo-imidazolidine]"
8,≤ 1000 nM,"O=C1CN(C(=O)c2c(F)cc(C#CC3CC3)cc2F)C(c2cc(Br)cs2)N1O (centres unmarked) [Example 39, 2-(4-Bromo-2-thienyl)-1-[4-(2-cyclopropylethynyl)-2,6-difluoro-benzoyl]-3-hydroxy-imidazolidin-4-one]"
9,≤ 1000 nM,"Cc1ccc(F)c(C(=O)N2CC(=O)N(O)C2c2csc(Br)c2)c1F (centres unmarked) [Example 102, 2-(5-Bromo-3-thienyl)-1-(2,6-difluoro-3-methyl-benzoyl)-3-hydroxy-imidazolidin-4-one]"
10,≤ 5000 nM and 1000 to 5000 nM,"O=C1CN(C(=O)c2c(F)cccc2F)C(c2ccc([N+](=O)[O-])s2)N1O (centres unmarked) [Example 16, 1-(2,6-Difluorobenzoyl)-3-hydroxy-2-(5-nitro-2-thienyl)imidazolidin-4-one]"
11,≤ 5000 nM and 1000 to 5000 nM,"O=C1CN(C(=O)c2c(F)cccc2Cl)C(c2ccc(Br)s2)N1O (centres unmarked) [Example 3, 2-(5-Bromo-2-thienyl)-1-(2-chloro-6-fluoro-benzoyl)-3-hydroxy-imidazolidin-4-one]"
12,≤ 1000 nM,"O=C1CN(C(=O)c2c(F)cccc2F)C(c2ccc(Br)s2)N1O (centres unmarked) [Example 4, 2-(5-Bromo-2-thienyl)-1-(2,6-difluorobenzoyl)-3-hydroxy-imidazolidin-4-one]"
13,≤ 1000 nM,"O=C1CN(C(=O)c2c(F)ccc(Br)c2F)C(c2cc(Br)cs2)N1O (centres unmarked) [Example 74, 1-(3-Bromo-2,6-difluoro-benzoyl)-2-(4-bromo-2-thienyl)-3-hydroxy-imidazolidin-4-one]"
14,≤ 5000 nM and 1000 to 5000 nM,"O=C1CN(C(=O)c2c(F)cccc2C(F)(F)F)C(c2cc(Br)cs2)N1O (centres unmarked) [Example 11, 2-(4-Bromo-2-thienyl)-1-[2-fluoro-6-(trifluoromethyl)benzoyl]-3-hydroxy-imidazolidin-4-one]"
15,≤ 1000 nM,"O=C1CN(C(=O)c2c(F)cccc2F)C(c2csc(Br)c2)N1O (single isomer, unassigned) [Example 46b, 2-(5-Bromo-3-thienyl)-1-(2,6-difluorobenzoyl)-3-hydroxy-imidazolidin-4-one]"
16,≤ 1000 nM,"Cc1ccccc1-c1ccc(F)c(C(=O)N2CC(=O)N(O)C2c2cc(Br)cs2)c1F (centres unmarked) [Example 133, 2-(4-Bromo-2-thienyl)-1-[2,6-difluoro-3-(o-tolyl)benzoyl]-3-hydroxy-imidazolidin-4-one]"
17,≤ 1000 nM,"Cc1cccc(F)c1C(=O)N1CC(=O)N(O)C1c1cc(Br)cs1 (centres unmarked) [Example 65, 2-(4-Bromo-2-thienyl)-1-(2-fluoro-6-methyl-benzoyl)-3-hydroxy-imidazolidin-4-one]"
18,≤ 5000 nM and 1000 to 5000 nM,"O=C1CN(C(=O)c2c(F)cc(CCC3CCCCC3)cc2F)C(c2cc(Br)cs2)N1O (centres unmarked) [Example 92, 2-(4-Bromo-2-thienyl)-1-[4-(2-cyclohexylethyl)-2,6-difluoro-benzoyl]-3-hydroxy-imidazolidin-4-one]"
19,≤ 1000 nM,"O=C1CN(C(=O)c2ccncc2F)C(c2cc(Br)cs2)N1O (centres unmarked) [Example 73, 2-(4-Bromo-2-thienyl)-1-(3-fluoropyridine-4-carbonyl)-3-hydroxy-imidazolidin-4-one]"
20,≤ 1000 nM,"O=C1CN(C(=O)c2c(F)ccc(-c3cccc4ccccc34)c2F)C(c2cc(Br)cs2)N1O (centres unmarked) [Example 134, 2-(4-Bromo-2-thienyl)-1-[2,6-difluoro-3-(1-naphthyl)benzoyl]-3-hydroxy-imidazolidin-4-one]"
21,≤ 5000 nM and 1000 to 5000 nM,"CC(C)CCc1cc(F)c(C(=O)N2CC(=O)N(O)C2c2cc(Br)cs2)c(F)c1 (centres unmarked) [Example 95, 2-(4-Bromo-2-thienyl)-1-(2,6-difluoro-4-isopentyl-benzoyl)-3-hydroxy-imidazolidin-4-one]"
22,≤ 1000 nM,"O=C1CN(Cc2ccccc2F)C(c2ccc(Br)s2)N1O (centres unmarked) [Example 41, 2-(5-Bromo-2-thienyl)-1-[(2-fluorophenyl)methyl]-3-hydroxy-imidazolidin-4-one]"
23,≤ 1000 nM,"CC(C)C=Cc1cc(F)c(C(=O)N2CC(=O)N(O)C2c2cc(Br)cs2)c(F)c1 (centres unmarked) [Example 94, 2-(4-Bromo-2-thienyl)-1-[2,6-difluoro-4-[3-methylbut-1-enyl]benzoyl]-3-hydroxy-imidazolidin-4-one]"
24,≤ 5000 nM and 1000 to 5000 nM,"O=C1CN(C(=O)c2ccc(Cc3ccccc3)cc2)C(c2cc(Br)cs2)N1O (centres unmarked) [Example 53, 1-(4-Benzylbenzoyl)-2-(4-bromo-2-thienyl)-3-hydroxy-imidazolidin-4-one]"
25,≤ 5000 nM and 1000 to 5000 nM,"NS(=O)(=O)N1CCC(C(=O)N2CC(=O)N(O)C2c2cc(Br)cs2)CC1 (centres unmarked) [Example 108, 4-[2-(4-Bromo-2-thienyl)-3-hydroxy-4-oxo-imidazolidine-1-carbonyl]piperidine-1-sulfonamide]"
26,≤ 1000 nM,"C[C@@H](c1ccccc1)N1CC(=O)N(O)C1c1cc(I)cs1 (single isomer, unassigned) [Example 119b]"
27,≤ 1000 nM,"Cc1ccc(F)c(C(=O)N2CC(=O)N(O)C2c2cc(Br)cs2)c1F (centres unmarked) [Example 77, 2-(4-Bromo-2-thienyl)-1-(2,6-difluoro-3-methyl-benzoyl)-3-hydroxy-imidazolidin-4-one]"
28,≤ 5000 nM and 1000 to 5000 nM,"C#Cc1csc(C2N(O)C(=O)CN2C(=O)c2ccccc2F)c1 (centres unmarked) [Example 35, 2-(4-Ethynyl-2-thienyl)-1-(2-fluorobenzoyl)-3-hydroxy-imidazolidin-4-one]"
29,≤ 1000 nM,"O=C1CN(C(=O)c2c(F)cccc2F)C(c2cc(Br)cs2)N1O (centres unmarked) [Example 8, 2-(4-Bromo-2-thienyl)-1-(2,6-difluorobenzoyl)-3-hydroxy-imidazolidin-4-one]"

# Same assay, conditions: stated in the synthesis examples; assay not named
row,relative activity of the separated isomers,SMILES
1,most active isomer,"O=C1CN(C(=O)c2c(F)cccc2F)C(c2csc(Br)c2)N1O (single isomer, unassigned) [Example 46b, 2-(5-Bromo-3-thienyl)-1-(2,6-difluorobenzoyl)-3-hydroxy-imidazolidin-4-one]"
2,less active isomer,"C[C@@H](c1ccccc1)N1CC(=O)N(O)C1c1cc(I)cs1 (single isomer, unassigned) [Example 119a]"
3,most active isomer,"C[C@@H](c1ccccc1)N1CC(=O)N(O)C1c1cc(I)cs1 (single isomer, unassigned) [Example 119b]"
